Reference: US20020137929A1, “1 - (3-heterocyclylphenyl) isothiourea, -isourea, -guanidine and -amidine herbicidal agents” (Intellectual Property Department, BASF Aktiengesellschaft, priority 1998, published 2002)

Legend:
[1] = tested on: IPOHE (Morningglory, Ivyleaf); assay: Postemergence herbicidal evaluation; assay type: in vivo, Ipomoea hederacea
In short: (§1)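 Seedlings grown about two weeks were sprayed at 40 psi with compound dispersed in 50/50 acetone/water plus 0.5% TWEEN 20, at about 0.0156 to 0.500 kg/ha. Plants were kept in the greenhouse and scored 4–5 weeks later on a 0–9 visual scale against untreated controls.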

AMBEL (Ragweed, Common) [2] = assay: Preemergence herbicidal evaluation; assay type: in vivo, Ambrosia artemisifolia; settings: rated 4-5 weeks after treatment
In short: (§2)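 Test compound, dissolved in aqueous acetone, was sprayed over planted soil cups at an equivalent of about 0.0156 to 0.500 kg/ha; seeds had been mixed with potting soil. Greenhouse growth followed, with visual 0-9 scoring of injury at four to five weeks.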

[3] = tested on: CHEAL (Lambsquarters, Common); assay: Postemergence herbicidal evaluation; assay type: in vivo, Chenopodium album
In short: as §1

CASOB (Sicklepod) [4] = assay: Preemergence herbicidal evaluation; assay type: in vivo, Cassia obtusifolia; settings: rated 4-5 weeks after treatment
In short: as §2

[5] = tested on: GLXMAW (Soybean, Williams); assay: Preemergence herbicidal evaluation; assay type: in vivo, Glycine max, (L.) Merr. cv Williams; settings: rated 4-5 weeks after treatment
In short: as §2

[6] = tested on: TRZAWR (Wheat, Winter, cv Riband); assay: Postemergence herbicidal evaluation; assay type: in vivo, Triticum aestivum
In short: as §1

[7] = tested on: CHEAL (Lambsquarters, Common); assay: Preemergence herbicidal evaluation; assay type: in vivo, Chenopodium album; settings: rated 4-5 weeks after treatment
In short: as §2

MOOVA (Monochoria) = assay: Preemergence weed control under flooded paddy conditions; assay type: in vivo, Monochoria vaginalis; settings: rated 3-4 weeks after treatment
In short: (§3)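 Flooded-pot preemergence screen with silt loam and seeds in the upper 0.5 cm. Dose about 0.0313 to 0.500 kg/ha, delivered into flood water; visual 0-9 score after 3 to 4 weeks.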

ECHCG (Barnyardgrass) = assay: Postemergence herbicidal evaluation; assay type: in vivo, Echinochloa crus-galli
In short: as §1

CASOB (Sicklepod) [8] = assay: Postemergence herbicidal evaluation; assay type: in vivo, Cassia obtusifolia
In short: as §1

ORYSAT (Rice, Tebonnet) = assay: Preemergence herbicidal evaluation; assay type: in vivo, Oryza sativa, (L.) Tebonnet; settings: rated 4-5 weeks after treatment
In short: as §2

[9] = tested on: SAGPY (Arrowhead (Pygmaea)); assay: Preemergence weed control under flooded paddy conditions; assay type: in vivo, Sagittaria pygmaea; settings: rated 3-4 weeks after treatment
In short: as §3

AMBEL (Ragweed, Common) [10] = assay: Postemergence herbicidal evaluation; assay type: in vivo, Ambrosia artemisifolia
In short: as §1

ABUTH (Velvetleaf) = assay: Preemergence herbicidal evaluation; assay type: in vivo, Abutilon theophrasti; settings: rated 4-5 weeks after treatment
In short: as §2

[11] = tested on: IPOHE (Morningglory, Ivyleaf); assay: Preemergence herbicidal evaluation; assay type: in vivo, Ipomoea hederacea; settings: rated 4-5 weeks after treatment
In short: as §2

[12] = tested on: GLXMAW (Soybean, Williams); assay: Postemergence herbicidal evaluation; assay type: in vivo, Glycine max, (L.) Merr. cv Williams
In short: as §1

Structure (SMILES): C[C@@H](C(=O)O)N1C(=O)CS/C1=N/c1cc(-n2c(=O)cc(C(F)(F)F)n(C)c2=O)c(F)cc1Cl [Compound 51, 2-{{2-Chloro-5-[3,6-dihydro-3-methyl-2,6-dioxo-4-(trifluoromethyl)-1(2H)-pyrimidinyl]-4-fluoro-phenyl}imino}-α-methyl-4-oxo-3-thiazolidineacetic acid, L-]
- Postemergence herbicidal rating IPOHE ([1]; Rate 0.0158 kg/ha): 9.0
- Postemergence herbicidal rating IPOHE ([1]; Rate 0.0315 kg/ha): 9.0
- Postemergence herbicidal rating IPOHE ([1]; Rate 0.0630 kg/ha): 9.0
- Preemergence herbicidal rating AMBEL (AMBEL (Ragweed, Common) [2]; rate 0.0156 kg/ha): 0.0
- Preemergence herbicidal rating AMBEL (AMBEL (Ragweed, Common) [2]; rate 0.0313 kg/ha): 0.0
- Preemergence herbicidal rating AMBEL (AMBEL (Ragweed, Common) [2]; rate 0.0625 kg/ha): 4.0
- Preemergence herbicidal rating AMBEL (AMBEL (Ragweed, Common) [2]; rate 0.1250 kg/ha): 9.0
- Preemergence herbicidal rating AMBEL (AMBEL (Ragweed, Common) [2]; rate 0.2500 kg/ha): 9.0
- Postemergence herbicidal rating CHEAL ([3]; Rate 0.0158 kg/ha): 9.0
- Postemergence herbicidal rating CHEAL ([3]; Rate 0.0315 kg/ha): 9.0
- Postemergence herbicidal rating CHEAL ([3]; Rate 0.0630 kg/ha): 9.0
- Preemergence herbicidal rating CASOB (CASOB (Sicklepod) [4]; rate 0.0156 kg/ha): 0.0
- Preemergence herbicidal rating CASOB (CASOB (Sicklepod) [4]; rate 0.0313 kg/ha): 0.0
- Preemergence herbicidal rating CASOB (CASOB (Sicklepod) [4]; rate 0.0625 kg/ha): 0.0
- Preemergence herbicidal rating CASOB (CASOB (Sicklepod) [4]; rate 0.1250 kg/ha): 1.0
- Preemergence herbicidal rating CASOB (CASOB (Sicklepod) [4]; rate 0.2500 kg/ha): 1.0
- Preemergence herbicidal rating GLXMAW ([5]; rate 0.0156 kg/ha): 0.0
- Preemergence herbicidal rating GLXMAW ([5]; rate 0.0313 kg/ha): 0.0
- Preemergence herbicidal rating GLXMAW ([5]; rate 0.0625 kg/ha): 1.0
- Preemergence herbicidal rating GLXMAW ([5]; rate 0.1250 kg/ha): 1.0
- Preemergence herbicidal rating GLXMAW ([5]; rate 0.2500 kg/ha): 7.0
- Postemergence herbicidal rating TRZAWR ([6]; Rate 0.0158 kg/ha): 4.0
- Postemergence herbicidal rating TRZAWR ([6]; Rate 0.0315 kg/ha): 5.5
- Postemergence herbicidal rating TRZAWR ([6]; Rate 0.0630 kg/ha): 7.0
- Preemergence herbicidal rating CHEAL ([7]; rate 0.0156 kg/ha): 3.0
- Preemergence herbicidal rating CHEAL ([7]; rate 0.0313 kg/ha): 9.0
- Preemergence herbicidal rating CHEAL ([7]; rate 0.0625 kg/ha): 9.0
- Preemergence herbicidal rating CHEAL ([7]; rate 0.1250 kg/ha): 9.0
- Preemergence herbicidal rating CHEAL ([7]; rate 0.2500 kg/ha): 9.0
- Herbicidal rating MOOVA (MOOVA (Monochoria); 0.0625 kg/ha): 3.0
- Herbicidal rating MOOVA (MOOVA (Monochoria); 0.1250 kg/ha): 4.0
- Herbicidal rating MOOVA (MOOVA (Monochoria); 0.2500 kg/ha): 4.0
- Postemergence herbicidal rating ECHCG (ECHCG (Barnyardgrass); Rate 0.0158 kg/ha): 4.0
- Postemergence herbicidal rating ECHCG (ECHCG (Barnyardgrass); Rate 0.0315 kg/ha): 5.0
- Postemergence herbicidal rating ECHCG (ECHCG (Barnyardgrass); Rate 0.0630 kg/ha): 9.0
- Postemergence herbicidal rating CASOB (CASOB (Sicklepod) [8]; Rate 0.0158 kg/ha): 2.0
- Postemergence herbicidal rating CASOB (CASOB (Sicklepod) [8]; Rate 0.0315 kg/ha): 2.0
- Postemergence herbicidal rating CASOB (CASOB (Sicklepod) [8]; Rate 0.0630 kg/ha): 7.0
- Preemergence herbicidal rating ORYSAT (ORYSAT (Rice, Tebonnet); rate 0.0156 kg/ha): 0.0
- Preemergence herbicidal rating ORYSAT (ORYSAT (Rice, Tebonnet); rate 0.0313 kg/ha): 1.0
- Preemergence herbicidal rating ORYSAT (ORYSAT (Rice, Tebonnet); rate 0.0625 kg/ha): 1.0
- Preemergence herbicidal rating ORYSAT (ORYSAT (Rice, Tebonnet); rate 0.1250 kg/ha): 1.0
- Preemergence herbicidal rating ORYSAT (ORYSAT (Rice, Tebonnet); rate 0.2500 kg/ha): 7.0
- Herbicidal rating SAGPY ([9]; 0.0625 kg/ha): 0.0
- Herbicidal rating SAGPY ([9]; 0.1250 kg/ha): 0.0
- Herbicidal rating SAGPY ([9]; 0.2500 kg/ha): 0.0
- Postemergence herbicidal rating AMBEL (AMBEL (Ragweed, Common) [10]; Rate 0.0158 kg/ha): 6.0
- Postemergence herbicidal rating AMBEL (AMBEL (Ragweed, Common) [10]; Rate 0.0315 kg/ha): 6.0
- Postemergence herbicidal rating AMBEL (AMBEL (Ragweed, Common) [10]; Rate 0.0630 kg/ha): 9.0
- Preemergence herbicidal rating ABUTH (ABUTH (Velvetleaf); rate 0.0156 kg/ha): 9.0
- Preemergence herbicidal rating ABUTH (ABUTH (Velvetleaf); rate 0.0313 kg/ha): 9.0
- Preemergence herbicidal rating ABUTH (ABUTH (Velvetleaf); rate 0.0625 kg/ha): 9.0
- Preemergence herbicidal rating ABUTH (ABUTH (Velvetleaf); rate 0.1250 kg/ha): 7.0
- Preemergence herbicidal rating ABUTH (ABUTH (Velvetleaf); rate 0.2500 kg/ha): 9.0
- Preemergence herbicidal rating IPOHE ([11]; rate 0.0156 kg/ha): 2.0
- Preemergence herbicidal rating IPOHE ([11]; rate 0.0313 kg/ha): 9.0
- Preemergence herbicidal rating IPOHE ([11]; rate 0.0625 kg/ha): 9.0
- Preemergence herbicidal rating IPOHE ([11]; rate 0.1250 kg/ha): 9.0
- Preemergence herbicidal rating IPOHE ([11]; rate 0.2500 kg/ha): 9.0
- Postemergence herbicidal rating GLXMAW ([12]; Rate 0.0158 kg/ha): 6.0
- Postemergence herbicidal rating GLXMAW ([12]; Rate 0.0315 kg/ha): 8.0
- Postemergence herbicidal rating GLXMAW ([12]; Rate 0.0630 kg/ha): 8.0
